Test results taken from article PMC3669377, “Purification, Cloning, Characterization and Essential Amino Acid Residues Analysis of a New ι-Carrageenase from Cellulophaga sp. QY3” (PLoS ONE, 2013).

Biological target: T1, CgiA_Ce (Cellulophaga sp. QY3, UniProt M1EU02)
T1 construct: gene cgiA; native secreted enzyme purified from culture supernatant; mature, putative signal peptide M1-S41 removed (precursor 492 residues); monomer
T1 sequence (M1EU02 42-492): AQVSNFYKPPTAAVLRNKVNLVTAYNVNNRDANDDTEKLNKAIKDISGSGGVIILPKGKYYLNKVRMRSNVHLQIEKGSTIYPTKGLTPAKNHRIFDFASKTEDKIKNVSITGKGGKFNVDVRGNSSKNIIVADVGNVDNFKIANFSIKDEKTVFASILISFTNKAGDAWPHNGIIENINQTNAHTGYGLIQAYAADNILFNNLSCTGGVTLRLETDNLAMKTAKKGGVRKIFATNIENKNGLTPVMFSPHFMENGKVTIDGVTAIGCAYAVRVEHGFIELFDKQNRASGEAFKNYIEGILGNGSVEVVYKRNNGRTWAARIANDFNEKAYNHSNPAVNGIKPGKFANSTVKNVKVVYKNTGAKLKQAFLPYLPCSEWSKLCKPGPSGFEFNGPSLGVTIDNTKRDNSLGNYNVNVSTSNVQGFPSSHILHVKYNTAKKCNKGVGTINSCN
Assay: FACE analysis of hydrolysis products
Format: biochemical
Conditions: pH 7.0, 45°C; 10 mg/ml substrate; minimum substrate; products neo-iota-carrabiose and neo-iota-carratetraose

O=S(=O)(O)O[C@@H]1[C@H](O[C@H]2O[C@@H]3CO[C@@H]([C@H]3O[C@@H]3O[C@H](CO)[C@H](OS(=O)(=O)O)[C@H](O[C@H]4O[C@@H]5CO[C@@H]([C@H]5O)[C@H]4OS(=O)(=O)O)[C@H]3O)[C@H]2OS(=O)(=O)O)[C@@H](O)[C@H](O[C@@H]2[C@@H]3OC[C@H]2O[C@H](O[C@H]2[C@@H](OS(=O)(=O)O)[C@@H](CO)OC(O)[C@@H]2O)[C@@H]3OS(=O)(=O)O)O[C@@H]1CO (stereo partly shown) [DP6, neo-ι-carrahexaose]
FACE analysis of hydrolysis products: Neo-ι-carrahexaose was the shortest chain that can be recognized and cleaved by CgiA_Ce
